Source: patent publication EP0966960A1, “Agent for inhibiting carcinogenesis or tumor metastasis” (DAINIPPON INK AND CHEMICALS, INC., priority 1998, dated 1999)

What was measured:
[1] = tested on: colon cancer strain highly metastasizable to liver (MOUSE COLON 26); experiment: Inhibition of metastasis of colon cancer to liver; type: in vivo, BALB/c mouse; conditions: for Number of visible tumor tubers (average ± SD): liver
Method: The abdomen of a BALB/c mouse was sectioned, and 2 × 10^4 cells of a colon cancer strain highly metastasizable to liver (MOUSE COLON 26) were injected into the portal vein. Zeaxanthin (4 µg/mouse in Test Example 1; 40 µg/mouse in Test Example 2; 400 µg/mouse in Test Example 3) and all-trans retinoic acid (ATRA) as a positive control were orally administered everyday for 5 consecutive days after the inoculation with tumor cells and then the administration was discontinued for 2 days. The cycle of the 5-day administration and the 2-day discontinuation was repeated twice. Twenty days later, the mouse was sacrificed, and the number of visible tumor tubers in the liver was counted. In Table 2, the mark "*" indicates a significant difference when p < 0.005 (Whitney's U-test).

[2] = tested on: Naturally Occurring Hepatoma; experiment: Carcinogenesis-inhibiting effect with regard to naturally occurring hepatoma; type: in vivo, C3H/He female mice
Method: C3H/He female mice (control group: 14 mice; test group: 12 mice), in which hepatoma is known to occur naturally, were allowed to freely take food and water for 40 weeks. For the mice of the test group, 20 mg zeaxanthin (having a purity of 98.5%) which was obtained in a manner similar to that of the above example of production of zeaxanthin was suspended in 1 ml dimethyl sulfoxide (DMSO), and thereafter the suspension was added to the drinking water of the test so that the final concentration of zeaxanthin was 0.005%. On the other hand, for the control group, only DMSO in the same amount was added to the drinking water. At the end of the 40 weeks, both groups of mice were sacrificed, and the number of tumors which occurred in the liver was counted.

B16-BL6 melanoma cells = experiment: Inhibition of invasion of basement membrane (Transwell chamber); type: cell-based; conditions: 4 hours
Method: The action mechanism of zeaxanthin for inhibiting metastasis of colon cancer to the liver in Example 2 was examined using a Transwell chamber.
A chamber which is separated into two layers (upper and lower layers) by a membrane filter having pores of 8 µm in diameter was used, the upper surface of the filter being coated with 5 µg of matrigel (a substrate for restructuring a basement membrane), and the lower surface being coated with 1 µg of fibronectin. B16-BL6 melanoma cells having a cell density of […] were added to the upper layer of the chamber, and were incubated in a 5%-CO2 incubator at 37°C for 4 hours in the presence of 0.05∼500 µM of zeaxanthin. After the incubation, the number of cells which invaded the surface of the lower part of the filter and shifted thereto were counted using an optical microscope. […]

lung cancer = experiment: Inhibition of carcinogenesis (lung), 4-nitroquinoline-1-oxide initiator / glycerin promoter; type: in vivo, ddY mice
Method: As a carcinogenesis initiator, 4-nitroquinoline-1-oxide dissolved in a solution of olive oil and cholesterol mixed in the ratio of 20:1 was administered subcutaneously in a single dose to ddY mice (a control group of 15 mice and a test group of 15 mice) in an amount of 10 mg/3.3ml/kg weight. Four weeks after administration, an 8% water solution of glycerin as a carcinogenesis promoter was given to the mice of the control group as drinking water for 25 weeks in a manner such that they could take it freely. (The duration of carcinogenesis promotion was 25 weeks).
In a manner similar to that for the control group, the carcinogenesis initiator was subcutaneously administered to the mice of the test group, and 4 weeks after the administration, an 8% water solution of glycerin as a carcinogenesis promoter was given to the mice of the test group as drinking water for 25 weeks in a manner such that they could take it freely, while zeaxanthin suspended in a liquid mixture of olive oil and "Tween 80" was forcibly administered to the mice of the test group 3 times a week throughout the 25-week duration of carcinogenesis promotion in an amount of 0.2 g per mouse per administration.
In addition, food and drinking water was given to the mice in a manner such that they could take it freely. Twenty five weeks after the start of the administration of zeaxanthin, that is, after the duration of carcinogenesis promotion was completed, the mice of both the control group and the test group were sacrificed, and the number of mice in which lung cancer occurred, and the average number of tumors were counted.
In Table 4, those values in parentheses indicate values obtained by dividing the number of mice in each group in which lung cancer occurred by the total number of mice in each group. The average number of tumors was obtained by dividing the total number of tumors in all mice in each group by the total number of mice in each group.

skin cancer = experiment: Inhibition of carcinogenesis (skin), 7,12-dimethylbenz[a]anthracene / TPA; type: in vivo, ICR male mouse
Method: The back of an ICR male mouse (control group: 15 mice; test group: 14 mice) was shaved, and 100 µg of 7,12-dimethylbenz[a]anthracene in 100 µl of acetone was applied thereto. Two days after the application, application of 1.6 nmol of 12-O-tetradecanoylphorbal-13-acetate (TPA) in 100 µl of acetone was begun and repeated twice a week. The duration of carcinogenesis promotion was set to 15 weeks.
An hour before every TPA application, 160 nmol zeaxanthin (which makes the molar ratio of TPA to zeaxanthin 1:100) in 100 µl of acetone was applied to the mice of test group. After the 15-week duration of carcinogenesis promotion, the ratio of occurrence of skin tumor and the average number of tumors were measured.
In Table 5, those values in parentheses indicate values obtained by dividing the number of mice in each group in which skin cancer occurred by the total number of mice in each group. The average number of tumors was obtained by dividing the total number of tumors in all mice in each group by the total number of mice in each group.

[3] = Acute toxicity test on mice; set-up: species or system mouse (ICR male); conditions: mouse, in vivo; oral by gastric probe, 1000 or 2000 mg/kg, n=3, 7 days observation; approximate, estimated from survival rate
Method: Using a gastric probe, zeaxanthin (having a purity of 98.5%) was forcibly orally administered to each mouse (ICR male weighing 20∼25 g, n=3) in an amount of 1000 or 2000 mg/kg. After the oral administration, the mice were reared in a cage for 7 days to observe the number of deaths and general conditions. An approximate median lethal dose (LD50, in mg/kg) was estimated from the survival rate of the mice after observation.

[4] = from average number of tumors, test group versus control group

CC1=C(/C=C/C(C)=C/C=C/C(C)=C/C(=O)O)C(C)(C)CCC1 [ATRA, all-trans retinoic acid, reference compound]
Number of visible tumor tubers (average ± SD) ([1]; positive control, orally, dose not given, twenty days later, * p < 0.005): 0.83 ± 1.17* | Average weight of liver ([1]; positive control, orally, dose not given, twenty days later): 0.92 g

CC1=C(/C=C/C(C)=C/C=C/C(C)=C/C=C/C=C(C)/C=C/C=C(C)/C=C/C2=C(C)C[C@@H](O)CC2(C)C)C(C)(C)C[C@H](O)C1 [zeaxanthin]
inhibition rate ([2]; test group versus control group, 40 weeks): 95% | Number of mice in which tumor occurred (percentage) ([2]; zeaxanthin 0.005% in drinking water, 40 weeks, 12 mice (control 35.7%)): 8.3% | Number of mice in which tumor occurred ([2]; zeaxanthin 0.005% in drinking water, 40 weeks, 12 mice, liver tumors (control 5 of 14)): 1 | Average number of tumors ([2]; zeaxanthin 0.005% in drinking water, 40 weeks, liver (control 1.75)): 0.08 | Number of visible tumor tubers (average ± SD) ([1]; 4 µg/mouse orally, 5 days on / 2 days off, cycle repeated twice, twenty days later (no administration 12.25 ± 6.13)): 6.86 ± 2.27 | Average weight of liver ([1]; 4 µg/mouse orally, twenty days later (no administration 2.16)): 1.36 g | Number of visible tumor tubers (average ± SD) ([1]; 40 µg/mouse orally, 5 days on / 2 days off, cycle repeated twice, twenty days later, * p < 0.005): 1.87 ± 1.96* | Average weight of liver ([1]; 40 µg/mouse orally, twenty days later): 0.99 g | Number of visible tumor tubers (average ± SD) ([1]; 400 µg/mouse orally, 5 days on / 2 days off, cycle repeated twice, twenty days later, * p < 0.005): 1.00 ± 2.13* | Average weight of liver ([1]; 400 µg/mouse orally, twenty days later): 0.99 g | Number of cells which invaded/shifted to basement membrane (B16-BL6 melanoma cells; 0.05 µM, 37°C (DMSO only 157 ± 21)): 137 ± 17 | Number of cells which invaded/shifted to basement membrane (B16-BL6 melanoma cells; 0.5 µM, 37°C): 119 ± 17 | Number of cells which invaded/shifted to basement membrane (B16-BL6 melanoma cells; 5 µM, 37°C, * p < 0.05): 109 ± 12* | Number of cells which invaded/shifted to basement membrane (B16-BL6 melanoma cells; 50 µM, 37°C, ** p < 0.005): 88 ± 7** | Number of cells which invaded/shifted to basement membrane (B16-BL6 melanoma cells; 500 µM, 37°C, ** p < 0.005): 36 ± 12** | Average number of tumors (lung cancer; 0.2 g per mouse per administration, 3 times a week, 25 weeks (control 1.40)): 0.38 | Number of mice in which lung cancer occurred (divided by total number of mice) (lung cancer; 0.2 g per mouse per administration, 3 times a week, 25 weeks (control 73%)): 33% | Number of mice in which lung cancer occurred (lung cancer; 0.2 g per mouse per administration, 3 times a week, 25 weeks, 15 mice (control 11 of 15)): 5 | Inhibition ratio of carcinogenesis (lung cancer; [4]): 73% | Average number of tumors (skin cancer; 160 nmol applied an hour before every TPA application, 15 weeks (control 1.60)): 0.86 | Number of mice in which skin cancer occurred (divided by total number of mice) (skin cancer; 160 nmol applied an hour before every TPA application, 15 weeks (control 47%)): 21% | Number of mice in which skin cancer occurred (skin cancer; 160 nmol applied an hour before every TPA application, 15 weeks, 14 mice (control 7 of 15)): 3 | Inhibition ratio of carcinogenesis (skin cancer; [4]): 46% | LD50 at 168 h [3]: > 2000 mg/kg

CC1=C(/C=C/C(C)=C/C=C/C(C)=C/C=C/C=C(C)/C=C/C=C(C)/C=C/C2=C(C)CCCC2(C)C)C(C)(C)CCC1 [β-carotene, reference compound]
effect in inhibiting natural carcinogenesis ([2]; experiments conducted in the same manner as in Example 1): no such effect
